Laboratory results taken from patent publication US20200069648A1, “HALOALLYLAMINE PYRAZOLE DERIVATIVE INHIBITORS OF LYSYL OXIDASES AND USES THEREOF” (Pharmaxis Ltd., priority 2017, published 2020).
Where a name gives a salt, the structure may show the parent alone.

Assays:
Human LOXL2 = molecular target: T1, Human LOXL2 (Homo sapiens, UniProt Q9Y4K0); assay: LOXL2 amine oxidase inhibition, peroxidase-coupled Amplex Red assay; assay type: biochemical; conditions: 30 min preincubation at 37° C., putrescine substrate
T1 sequence (Q9Y4K0 26-774): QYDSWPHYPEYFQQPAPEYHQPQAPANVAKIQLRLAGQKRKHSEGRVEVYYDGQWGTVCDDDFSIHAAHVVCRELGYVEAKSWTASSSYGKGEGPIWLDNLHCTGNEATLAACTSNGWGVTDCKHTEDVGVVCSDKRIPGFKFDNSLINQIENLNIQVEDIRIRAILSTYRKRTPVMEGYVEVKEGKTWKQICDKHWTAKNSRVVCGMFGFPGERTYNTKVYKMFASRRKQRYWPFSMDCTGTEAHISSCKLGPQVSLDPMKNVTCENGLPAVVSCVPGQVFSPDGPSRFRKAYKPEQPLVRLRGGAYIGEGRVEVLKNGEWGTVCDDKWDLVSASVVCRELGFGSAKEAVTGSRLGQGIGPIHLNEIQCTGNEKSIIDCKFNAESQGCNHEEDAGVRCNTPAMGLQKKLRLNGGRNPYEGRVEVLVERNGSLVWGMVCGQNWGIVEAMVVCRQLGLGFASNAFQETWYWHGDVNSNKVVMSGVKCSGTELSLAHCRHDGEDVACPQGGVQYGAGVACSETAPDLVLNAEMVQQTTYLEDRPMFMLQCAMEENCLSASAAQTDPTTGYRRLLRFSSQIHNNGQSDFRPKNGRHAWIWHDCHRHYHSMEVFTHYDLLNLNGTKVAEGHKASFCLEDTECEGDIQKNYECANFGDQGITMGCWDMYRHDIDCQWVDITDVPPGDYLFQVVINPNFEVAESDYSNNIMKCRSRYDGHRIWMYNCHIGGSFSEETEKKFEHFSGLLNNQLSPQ
Outline: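 Enzyme preincubated 30 min at 37 °C with compound (11-point curve) in 1.2 M urea, 50 mM borate pH 8.2 plus 1 μM mofegiline and 0.5 mM pargyline; putrescine at twice KM (10 mM for LOXL2), Amplex Red and HRP added. Fluorescence (565/590 nm) read every 2.5 min for 30 min; IC50 from kinetic slopes.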

Bovine LOX = molecular target: T2, Bovine LOX (Bos taurus, UniProt P33072); assay: LOX amine oxidase inhibition, peroxidase-coupled Amplex Red assay; assay type: biochemical; conditions: 30 min preincubation at 37° C., putrescine substrate
T2 sequence (P33072 170-418): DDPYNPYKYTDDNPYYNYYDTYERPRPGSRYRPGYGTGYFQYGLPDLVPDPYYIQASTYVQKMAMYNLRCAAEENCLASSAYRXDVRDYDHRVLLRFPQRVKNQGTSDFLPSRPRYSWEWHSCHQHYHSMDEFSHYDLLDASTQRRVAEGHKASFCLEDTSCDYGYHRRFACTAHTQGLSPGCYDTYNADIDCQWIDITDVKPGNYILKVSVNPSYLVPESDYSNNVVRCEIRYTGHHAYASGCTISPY
Outline: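 Bovine LOX in 1.2 M urea, 50 mM sodium borate pH 8.2 […]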

CNS(=O)(=O)c1cc(F)c(Cn2nc(C)c(C/C(F)=C/CN)c2C)cc1F [Compound 26, (Z)-4-((4-(4-amino-2-fluorobut-2-en-1-yl)-3,5-dimethyl-1H-pyrazol-1-yl)methyl)-2,5-difluoro-N-methylbenzenesulfonamide hydrochloride]
IC50 (Human LOXL2): < 1 µM | IC50 (Bovine LOX): < 10 µM

CCOC(=O)c1c(Cc2ccc(S(=O)(=O)N(C)C)cc2)c(C)nn1C/C(F)=C/CN [Compound 27, (Z)-ethyl 1-(4-amino-2-fluorobut-2-enyl)-4-(4-(N,N-dimethylsulfamoyl)benzyl)-3-methyl-1H-pyrazole-5-carboxylate hydrochloride]
IC50 (Human LOXL2): < 1 µM | IC50 (Bovine LOX): < 10 µM

CCOC(=O)c1nn(C/C(F)=C/CN)c(C)c1Cc1ccc(S(=O)(=O)N(C)C)cc1 [Compound 28, (Z)-ethyl 1-(4-amino-2-fluorobut-2-enyl)-4-(4-(N,N-dimethylsulfamoyl)benzyl)-5-methyl-1H-pyrazole-3-carboxylate hydrochloride]
IC50 (Human LOXL2): < 1 µM | IC50 (Bovine LOX): < 10 µM

Cc1nn(C/C(F)=C/CN)c(C(=O)N(C)C)c1Cc1ccc(S(=O)(=O)N(C)C)cc1 [Compound 29, (Z)-1-(4-amino-2-fluorobut-2-enyl)-4-(4-(N,N-dimethylsulfamoyl)benzyl)-N,N,3-trimethyl-1H-pyrazole-5-carboxamide hydrochloride]
IC50 (Human LOXL2): < 1 µM | IC50 (Bovine LOX): < 10 µM

Cc1nn(C/C(F)=C/CN)c(C(=O)O)c1Cc1ccc(S(=O)(=O)N(C)C)cc1 [Compound 30, (Z)-1-(4-amino-2-fluorobut-2-enyl)-4-(4-(N,N-dimethylsulfamoyl)benzyl)-3-methyl-1H-pyrazole-5-carboxylic acid hydrochloride]
IC50 (Human LOXL2): < 1 µM | IC50 (Bovine LOX): > 10 µM

Cc1c(Cc2ccc(S(=O)(=O)N(C)C)cc2)c(C(=O)O)nn1C/C(F)=C/CN [Compound 31, (Z)-1-(4-amino-2-fluorobut-2-enyl)-4-(4-(N,N-dimethylsulfamoyl)benzyl)-5-methyl-1H-pyrazole-3-carboxylic acid hydrochloride]
IC50 (Human LOXL2): < 1 µM | IC50 (Bovine LOX): > 10 µM

Cc1c(Cc2ccc(S(=O)(=O)N(C)C)cc2)c(C(=O)N(C)C)nn1C/C(F)=C/CN [Compound 32, (Z)-1-(4-amino-2-fluorobut-2-enyl)-4-(4-(N,N-dimethylsulfamoyl)benzyl)-N,N,5-trimethyl-1H-pyrazole-3-carboxamide hydrochloride]
IC50 (Human LOXL2): < 1 µM | IC50 (Bovine LOX): < 10 µM

CC(C)c1nn(C/C(F)=C/CN)c(C(C)O)c1Cc1ccc(S(=O)(=O)N(C)C)c(Cl)c1 (stereo not shown) [Compound 59, (Z)-4-((1-(4-amino-2-fluorobut-2-en-1-yl)-5-(1-hydroxyethyl)-3-isopropyl-1H-pyrazol-4-yl)methyl)-2-chloro-N,N-dimethylbenzenesulfonamide hydrochloride]
IC50 (Human LOXL2): < 1 µM | IC50 (Bovine LOX): > 10 µM

CC(C)c1nn(C/C(F)=C/CN)c(C(C)C)c1Cc1ccc(S(=O)(=O)N(C)C)c(Cl)c1 [Compound 60, (Z)-4-((1-(4-amino-2-fluorobut-2-en-1-yl)-3,5-diisopropyl-1H-pyrazol-4-yl)methyl)-2-chloro-N,N-dimethylbenzenesulfonamide hydrochloride]
IC50 (Human LOXL2): < 1 µM | IC50 (Bovine LOX): < 10 µM

Cc1nn(C/C(F)=C/CN)c(C(=O)N(C)C)c1Cc1ccc(S(=O)(=O)N(C)C)c(Cl)c1 [Compound 61, (Z)-1-(4-amino-2-fluorobut-2-en-1-yl)-4-(3-chloro-4-(N,N-dimethylsulfamoyl)benzyl)-N,N,3-trimethyl-1H-pyrazole-5-carboxamide hydrochloride]
IC50 (Human LOXL2): < 1 µM | IC50 (Bovine LOX): > 10 µM

Cc1nn(C/C(F)=C/CN)c(C(=O)NC(C)(C)C)c1Cc1ccc(S(=O)(=O)N(C)C)c(Cl)c1 [Compound 62, (Z)-1-(4-amino-2-fluorobut-2-en-1-yl)-N-(tert-butyl)-4-(3-chloro-4-(N,N-dimethylsulfamoyl)benzyl)-3-methyl-1H-pyrazole-5-carboxamide hydrochloride]
IC50 (Human LOXL2): < 1 µM | IC50 (Bovine LOX): < 10 µM
